Among the data in patent US20080287493A1, “ARYLMETHYLEN SUBSTITUTED N-ACYL-Y-AMINOALCOHOLS” (priority 2007, published 2008) are EC50 and IC50 values, retold here.

Test [1] deals with T1, human FSH receptor (Homo sapiens, UniProt P23945).
T1 construct: expressed in transfected cells; host or cells: CHO cells (hFSHR clone 16)
T1 sequence (P23945 18-695): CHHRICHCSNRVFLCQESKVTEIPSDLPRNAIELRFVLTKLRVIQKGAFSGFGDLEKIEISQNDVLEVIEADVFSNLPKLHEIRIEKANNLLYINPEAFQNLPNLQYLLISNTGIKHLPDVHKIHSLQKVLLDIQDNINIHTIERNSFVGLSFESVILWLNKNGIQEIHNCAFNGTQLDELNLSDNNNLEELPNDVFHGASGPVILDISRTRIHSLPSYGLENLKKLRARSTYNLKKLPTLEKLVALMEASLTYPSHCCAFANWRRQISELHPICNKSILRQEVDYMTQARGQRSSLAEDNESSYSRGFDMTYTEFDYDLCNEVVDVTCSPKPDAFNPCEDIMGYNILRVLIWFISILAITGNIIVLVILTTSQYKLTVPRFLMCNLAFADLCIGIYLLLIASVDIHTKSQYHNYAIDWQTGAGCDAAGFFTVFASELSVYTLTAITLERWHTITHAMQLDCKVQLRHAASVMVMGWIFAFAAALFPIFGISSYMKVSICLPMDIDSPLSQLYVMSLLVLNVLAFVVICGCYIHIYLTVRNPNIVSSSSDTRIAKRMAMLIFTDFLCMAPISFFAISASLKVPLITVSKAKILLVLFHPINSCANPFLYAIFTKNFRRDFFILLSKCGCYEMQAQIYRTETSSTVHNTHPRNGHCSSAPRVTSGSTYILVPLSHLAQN
Nature of the test: HTRF assay for measuring cAMP in cells, test for agonism (in the absence of hFSH). The test is classed as cell-based. As to conditions: hFSHR clone 16 cells (CHO cells stably transfected with the human FSH receptor), 37° C. for 2 h, read-out: EC50 (FSH agonistic effect in the HTRF assay). How it is done:
(§1) HTRF Assay for Measuring cAMP in Cells
(§2) The method is based on a competitive immunoassay between native cAMP, which has been produced by the cells, and cAMP which is labelled with XL665. The tracer binding was visualized by a monoclonal antibody, anti-cAMP labelled with cryptate [HTRF=homogeneous time-resolved fluorescence].
(§3) The specific signal is inversely proportional to the cAMP concentration of the samples employed.
(§4) The 665 nm/620 nm fluorescence ratio was evaluated.
(§5) The following material was used: 96-well plates for the tissue culture, 96-well plates with black edge and black base (e.g. Fluotrac 600 from Greiner), 96-well plates for the substance dilutions of polypropylene and cAMP Femtomolar (4000 wells Kit, CIS Bio International # 62AM1PEC).
(§6) The following reagents were used: BSA (bovine serum albumin) Fraction V protease-free, IBMX (3-isobutyl-1-methylxanthine), hFSH (human follicle stimulating hormone), Triton X-100 analytical grade, potassium fluoride analytical grade, G 418 (Geneticin) and Accutase.
(§7) Buffer 1 (washing and testing buffer) contained PBS, 1 mM CaCl2, 1 mM MgCl2, 0.2% glucose; 0.1% BSA, 1 mM IBMX. Buffer 2 (2× lysis buffer) contained 1% Triton X-100 in PBS (without CaCl2 and MgCl2). Buffer 3 (assay buffer) contained 50 mM potassium phosphate buffer (pH 7.0); 800 mM potassium fluoride; 0.2% BSA (always added fresh).
(§8) On day 1, the cells were seeded in 96-well plates (3×10^4 cells per well hFSHR clone 16 cells (CHO cells stably transfected with the human FSH receptor in 150 μl of medium). The next day, test substance dilutions were made up. For this purpose, all the substances were diluted in ice-cold buffer 1 (with or without hFSH), and the substance dilutions were placed on ice until applied to the cells.
(§9) The cell supernatant was then aspirated off, and the cells were washed 2× with 200 μl of buffer 1. The cells were treated with 60 μl of the appropriate substance concentrations at 37° C. for 2 h. The cells were then lysed with 60 μl of buffer 2 (put onto the supernatant) (on a plate shaker at RT for 30 min).
(§10) The test conjugates (XL-665 and anti-cAMP cryptate) were diluted in buffer 3 in accordance with the manufacturers' information. The actual mixture for measurement was pipetted into a black 96-well plate (in each case 15 μl of the cell lysate diluted with 35 μl of buffer 1; firstly 25 μl of XL-665 conjugate were pipetted and, after 10 min, 25 μl of the anti-cAMP cryptate were added). This is followed by incubation at RT for 90 minutes. The measurement was carried out in a PheraStar (BMG).
(§11) Dose-effect curve (hFSH) for the human receptor: 1e-8, 3e-9, 1 e-9, 3e-10, 1e-10, 3e-11, 1e-11, 3e-12 mol/l.
(§12) The test substances were employed in suitable dilutions in the absence (test for agonism) and in the presence of 1e-9 mol/l hFSH.
(§13) The values of the well ratio were averaged and then entered directly in SigmaPlot versus the concentrations. The maximum and minimum values were determined for each plate, and half the difference is to be regarded as IC50.

The target in test [2] is T1, human FSH receptor. Put plainly: HTRF assay for measuring cAMP in cells, test for antagonism (in the presence of hFSH). The test is classed as cell-based. The conditions noted are these: hFSHR clone 16 cells (CHO cells stably transfected with the human FSH receptor); in the presence of 1e-9 mol/l hFSH; 37° C. for 2 h; read-out: IC50 (FSH antagonistic effect in the HTRF assay). The procedure:
as §1, §2, §3, §4, §5, §6, §7, §8, §9, §10, §11, §12, §13
(TR-FRET usually uses a lanthanide donor and a delayed reading to cut background.)

Structures are written as SMILES. Some results are limits rather than exact numbers.

As to `CCOc1ccc(-c2cccc(OC)c2)cc1C(=O)N[C@@H](CCO)Cc1c[nH]c2ccccc12` [Example 2, 4-Ethoxy-3′-methoxy-biphenyl-3-carboxylic acid [(R)-3-hydroxy-1-(1H-indol-3-ylmethyl)-propyl]-amide], at human FSH receptor [1], the EC50 was more than 10 µM. The IC50 at human FSH receptor [2] came out at 300 nM. For `COc1ccc2nc(-c3cc(OC)c(OC)c(OC)c3)cc(C(=O)N[C@H](CCO)Cc3c[nH]c4ccccc34)c2c1` [Example 14, 6-Methoxy-2-(3,4,5-trimethoxy-phenyl)-quinoline-4-carboxylic acid [(S)-3-hydroxy-1-(1H-indol-3-yl-methyl)-propyl]-amide], in that order: 6 µM and more than 10000 nM. Consider `COc1ccc2nc(-c3cc(OC)c(OC)c(OC)c3)cc(C(=O)N[C@@H](CCO)Cc3csc4ccccc34)c2c1` [Example 9, 6-Methoxy-2-(3,4,5-trime-thoxy-phenyl)-quinoline-4-carboxylic acid ((R)-1-benzo-[b]thiophen-3-ylmethyl-3-hydroxy-propyl)-amide], for which, at human FSH receptor [2], the IC50 is more than 10000 nM.

In the case of `COc1ccccc1C#Cc1ccc(OC(C)C)c(C(=O)N[C@@H](CCO)Cc2c[nH]c3ccccc23)c1` [Example 5, N-[(R)-3-Hydroxy-1-(1H-indol-3-ylmethyl)-propyl]-2-isopropoxy-5-(2-methoxy-phenylethynyl)-benzamide], on human FSH receptor [1], the EC50 is more than 10 µM. Also, the IC50 on human FSH receptor [2] was 150 nM. Taken in the same sequence, the figures for `COc1ccc2nc(-c3cc(OC)c(OC)c(OC)c3)cc(C(=O)N[C@@H](CCO)Cc3ccsc3)c2c1` [Example 12, 6-Methoxy-2-(3,4,5-trime-thoxy-phenyl)-quinoline-4-carboxylic acid ((R)-3-hydroxy-1-thiophen-3-yl-methyl-propyl)-amide] were 5 µM and more than 10000 nM. Taken in the same sequence, the figures for `CNC(=O)c1ccc(-c2ccc(OC(C)C)c(C(=O)N[C@@H](CCO)Cc3c[nH]c4ccccc34)c2)cc1Cl` [Example 3, 3′-Chloro-4-isopropoxy-biphenyl-3,4′-dicarboxylicacid 3-{[(R)-3-hydroxy-1-(1H-indol-3-ylmethyl)-propyl]-amide} 4′-methylamide] were more than 10 µM and 25 nM. For `COc1ccc2nc(-c3cc(OC)c(OC)c(OC)c3)cc(C(=O)N[C@H](CCO)Cc3ccccc3)c2c1` [Example 17, 6-Methoxy-2-(3,4,5-trime-thoxy-phenyl)-quinoline-4-carboxylic acid ((S)-1-benzyl-3-hydroxy-propyl)-amide], in that order: 8 µM and more than 10000 nM. For `COc1ccc2nc(-c3cc(OC)c(OC)c(OC)c3)cc(C(=O)N[C@@H](CCO)Cc3ccc4ccccc4c3)c2c1` [Example 8, 6-Methoxy-2-(3,4,5-trimethoxy-phenyl)-quinoline-4-carboxylic acid ((R)-3-hydroxy-1-naphthalen-2-ylmethyl-propyl)-amide], the EC50 on human FSH receptor [1] is 7 µM. Also, the half-inhibitory concentration (IC50) on human FSH receptor [2] is more than 10000 nM.

One may read the EC50 as the midpoint of the concentration-response curve. The term IC50 denotes the concentration that gives 50% inhibition.
